Molecular target: T1, Dimer of Gag-Pol polyprotein [489-587] (Human immunodeficiency virus 1, UniProt P12497)
T1 construct: 489-587
Assay: Protease Inhibition Assay
Conditions: pH 5.5; 37 °C
Method: Sensitivity of HIV-1 protease activity to protease inhibitors was determined by a peptide substrate cleavage assay. Cleavage products and substrate were separated by reversed-phase HPLC on a Perkin-Elmer 3 X 3CR C8 column.

Compound | IC50 [nM]
CC(C)(C)NC(=O)[C@@H]1C[C@H](OCc2ccncc2)CCN1C[C@@H](O)[C@H](Cc1ccccc1)NC(=O)O[C@H]1CCOC1 [(3S)-oxolan-3-yl N-[(2S,3R)-4-[(2S,4R)-2-(tert-butylcarbamoyl)-4-(pyridin-4-ylmethoxy)piperidin-1-yl]-3-hydroxy-1-phenylbutan-2-yl]carbamate] | 260
CC(C)(C)NC(=O)[C@@H]1C[C@H](OCc2ccncc2)CCN1C[C@@H](O)[C@H](Cc1ccccc1)NC(=O)CCCc1ccccc1 [(2S,4R)-N-tert-butyl-1-[(2R,3S)-2-hydroxy-4-phenyl-3-(4-phenylbutanamido)butyl]-4-(pyridin-4-ylmethoxy)piperidine-2-carboxamide] | > 20000
CC(C)[C@H](NC(=O)c1ccc2ccccc2n1)C(=O)N[C@@H](Cc1ccccc1)[C@H](O)CN1CC[C@@H](OCc2ccncc2)C[C@H]1C(=O)NC(C)(C)C | 4
CC(C)CN(C[C@@H](O)[C@H](Cc1ccccc1)NC(=O)O[C@H]1CCOC1)S(=O)(=O)c1ccc(N)cc1 [VX-478] | 2.6

Reference: BindingDB's records for doi:10.1021/jm990336n (Boehringer Ingelheim Pharmaceuticals, 2000)
